Experimental data reported in the NIST ThermoML archive (doi:10.1016/j.jct.2019.05.002).

Assay: xn = mol fraction of the nth substance listed
Conditions: 100 kPa, Liquid; for speed of sound: Frequency=3 MHz, Single path-length method; for mass density: Vibrating tube method

CCC(O)CO (stereo not given) [1,2-butanediol] + CCCC(=O)OCC
Conditions | mass density [kg/m3] | speed of sound [m/s]
298.15 K, x2 = 0 | 998.56 | 1452.5
298.15 K, x2 = 0.1011 | 986 | 1424.2
298.15 K, x2 = 0.2032 | 973.31 | 1395.5
298.15 K, x2 = 0.3034 | 960.87 | 1367.4
298.15 K, x2 = 0.4004 | 948.81 | 1340.2
298.15 K, x2 = 0.5064 | 935.64 | 1310.5
298.15 K, x2 = 0.6021 | 923.76 | 1283.6
298.15 K, x2 = 0.7043 | 911.06 | 1254.9
298.15 K, x2 = 0.8009 | 899.06 | 1227.9
298.15 K, x2 = 0.9012 | 886.59 | 1199.7
303.15 K, x2 = 0 | 994.75 | 1437.9
303.15 K, x2 = 0.1011 | 982.02 | 1408.9
303.15 K, x2 = 0.2032 | 969.16 | 1379.6
303.15 K, x2 = 0.3034 | 956.55 | 1350.9
303.15 K, x2 = 0.4004 | 944.33 | 1323
303.15 K, x2 = 0.5064 | 930.98 | 1292.6
303.15 K, x2 = 0.6021 | 918.93 | 1265.2
303.15 K, x2 = 0.7043 | 906.06 | 1235.8
303.15 K, x2 = 0.8009 | 893.9 | 1208.1
303.15 K, x2 = 0.9012 | 881.27 | 1179.3
308.15 K, x2 = 0 | 990.92 | 1423.3
308.15 K, x2 = 0.1011 | 978.03 | 1393.7
308.15 K, x2 = 0.2032 | 965.01 | 1363.7
308.15 K, x2 = 0.3034 | 952.23 | 1334.3
308.15 K, x2 = 0.4004 | 939.86 | 1305.9
308.15 K, x2 = 0.5064 | 926.34 | 1274.8
308.15 K, x2 = 0.6021 | 914.14 | 1246.7
308.15 K, x2 = 0.7043 | 901.11 | 1216.7
308.15 K, x2 = 0.8009 | 888.79 | 1188.4
308.15 K, x2 = 0.9012 | 876 | 1159
313.15 K, x2 = 0 | 987.11 | 1408.7
313.15 K, x2 = 0.1011 | 974.05 | 1378.4
313.15 K, x2 = 0.2032 | 960.87 | 1347.8
313.15 K, x2 = 0.3034 | 947.93 | 1317.8
313.15 K, x2 = 0.4004 | 935.41 | 1288.7
313.15 K, x2 = 0.5064 | 921.72 | 1256.9
313.15 K, x2 = 0.6021 | 909.36 | 1228.3
313.15 K, x2 = 0.7043 | 896.16 | 1197.6
313.15 K, x2 = 0.8009 | 883.69 | 1168.7
313.15 K, x2 = 0.9012 | 870.74 | 1138.6
318.15 K, x2 = 0 | 983.28 | 1394.1
318.15 K, x2 = 0.1011 | 970.05 | 1363.2
318.15 K, x2 = 0.2032 | 956.7 | 1331.9
318.15 K, x2 = 0.3034 | 943.59 | 1301.2
318.15 K, x2 = 0.4004 | 930.9 | 1271.5
318.15 K, x2 = 0.5064 | 917.03 | 1239.1
318.15 K, x2 = 0.6021 | 904.51 | 1209.8
318.15 K, x2 = 0.7043 | 891.14 | 1178.5
318.15 K, x2 = 0.8009 | 878.51 | 1148.9
318.15 K, x2 = 0.9012 | 865.39 | 1118.2
323.15 K, x2 = 0 | 979.46 | 1379.5
323.15 K, x2 = 0.1011 | 966.07 | 1347.9
323.15 K, x2 = 0.2032 | 952.55 | 1316
323.15 K, x2 = 0.3034 | 939.28 | 1284.7
323.15 K, x2 = 0.4004 | 926.44 | 1254.4
323.15 K, x2 = 0.5064 | 912.4 | 1221.3
323.15 K, x2 = 0.6021 | 899.72 | 1191.4
323.15 K, x2 = 0.7043 | 886.19 | 1159.4
323.15 K, x2 = 0.8009 | 873.4 | 1129.2
323.15 K, x2 = 0.9012 | 860.11 | 1097.9
